Legend:
Conditions in all cases: 20 min
human OAT4 = target: T1, human OAT4 (Homo sapiens, UniProt Q9NSA0); assay: SLC transporter substrate assay, HEK293-OAT4-LV vs control HEK293-Mock-LV cells
T1 sequence (Q9NSA0 1-550): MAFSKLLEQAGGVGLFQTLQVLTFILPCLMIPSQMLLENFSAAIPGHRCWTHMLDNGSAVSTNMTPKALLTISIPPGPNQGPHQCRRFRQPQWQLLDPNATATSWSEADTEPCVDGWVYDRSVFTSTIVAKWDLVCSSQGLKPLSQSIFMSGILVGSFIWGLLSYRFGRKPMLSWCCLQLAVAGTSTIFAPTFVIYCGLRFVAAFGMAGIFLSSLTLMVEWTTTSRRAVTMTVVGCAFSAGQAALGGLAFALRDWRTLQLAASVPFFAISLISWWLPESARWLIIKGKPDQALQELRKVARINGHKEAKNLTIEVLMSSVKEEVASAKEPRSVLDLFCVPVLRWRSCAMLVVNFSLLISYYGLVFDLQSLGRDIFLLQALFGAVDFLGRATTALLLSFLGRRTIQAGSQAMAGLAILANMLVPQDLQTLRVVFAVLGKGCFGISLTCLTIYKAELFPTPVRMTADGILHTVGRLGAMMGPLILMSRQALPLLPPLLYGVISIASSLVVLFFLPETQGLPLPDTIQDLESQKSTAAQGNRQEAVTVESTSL

human OAT3 = target: T2, human OAT3 (Homo sapiens, UniProt Q8TCC7); assay: SLC transporter substrate assay, HEK293-OAT3-LV vs control HEK293-Mock-LV cells
T2 sequence (Q8TCC7 1-542): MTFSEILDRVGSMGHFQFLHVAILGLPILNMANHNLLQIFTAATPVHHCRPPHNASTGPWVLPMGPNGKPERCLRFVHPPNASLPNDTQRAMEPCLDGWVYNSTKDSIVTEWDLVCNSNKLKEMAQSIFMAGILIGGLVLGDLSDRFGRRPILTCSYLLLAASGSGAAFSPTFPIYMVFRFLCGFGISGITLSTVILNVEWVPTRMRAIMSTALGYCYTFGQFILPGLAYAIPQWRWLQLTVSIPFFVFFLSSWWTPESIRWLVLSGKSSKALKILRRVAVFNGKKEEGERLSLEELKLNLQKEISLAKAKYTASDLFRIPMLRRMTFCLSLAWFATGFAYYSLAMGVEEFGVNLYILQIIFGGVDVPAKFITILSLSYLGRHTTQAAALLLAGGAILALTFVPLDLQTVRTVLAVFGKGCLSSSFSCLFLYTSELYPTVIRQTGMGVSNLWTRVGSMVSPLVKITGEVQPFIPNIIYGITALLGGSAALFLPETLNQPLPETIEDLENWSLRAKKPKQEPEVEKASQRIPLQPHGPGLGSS

human OAT1 = target: T3, human OAT1 (Homo sapiens, UniProt Q4U2R8); assay: SLC transporter substrate assay, HEK293-OAT1-LV vs control HEK293-Mock-B-LV cells
T3 sequence (Q4U2R8 1-563): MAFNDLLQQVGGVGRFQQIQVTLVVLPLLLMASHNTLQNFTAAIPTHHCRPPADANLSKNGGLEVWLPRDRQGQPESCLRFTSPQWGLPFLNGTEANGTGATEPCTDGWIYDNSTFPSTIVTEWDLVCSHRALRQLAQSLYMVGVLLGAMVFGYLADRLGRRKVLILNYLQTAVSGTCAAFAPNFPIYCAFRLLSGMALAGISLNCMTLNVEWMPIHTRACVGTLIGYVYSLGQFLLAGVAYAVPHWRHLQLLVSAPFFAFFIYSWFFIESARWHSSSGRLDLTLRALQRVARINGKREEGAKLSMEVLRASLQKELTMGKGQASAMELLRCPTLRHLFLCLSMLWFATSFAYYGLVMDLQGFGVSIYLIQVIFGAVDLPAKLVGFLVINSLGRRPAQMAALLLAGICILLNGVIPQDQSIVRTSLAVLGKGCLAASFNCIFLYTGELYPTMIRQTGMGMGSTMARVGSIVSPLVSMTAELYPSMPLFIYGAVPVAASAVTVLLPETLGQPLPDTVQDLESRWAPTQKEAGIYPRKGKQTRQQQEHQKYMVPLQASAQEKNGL

[1] = 0.03 µM nominal + Benzbromarone 300 µM
[2] = 0.30 µM nominal + Benzbromarone 300 µM
[3] = 0.03 µM nominal + Probenecid 500 µM
[4] = 0.30 µM nominal + Probenecid 500 µM
[5] = absence and presence of probenecid
[6] = 0.03 µM nominal + Probenecid 300 µM
[7] = 0.30 µM nominal + Probenecid 300 µM

SMILES: [3H]C(c1ccc2ccccc2c1)C([3H])(NC(=O)C1CCC(CNC(=O)CN2CCN(CC(=O)[O-])CCN(CC(=O)[O-])CCN(CC(=O)[O-])CC2)CC1)C(=O)NCCCCC(NC(=O)NC(CCC(=O)O)C(=O)O)C(=O)O.[Lu+3] (stereo not drawn) [([α,β-^3H]Nal)Lu-PSMA-617]
- Accumulation in OAT4 transporter expressing cells (human OAT4; [1]): 0.03 ± 0.01 pmol/mg protein
- Accumulation in control cells (human OAT4; [1]): 0.02 ± 0.00 pmol/mg protein
- Accumulation, active transport (human OAT4; [1]): 0.01 ± 0.01 pmol/mg protein
- Fold accumulation (human OAT4; [1]): 1.47
- Accumulation in OAT4 transporter expressing cells (human OAT4; 0.03 µM nominal, no inhibitor): 0.04 ± 0.01 pmol/mg protein
- Accumulation in control cells (human OAT4; 0.03 µM nominal, no inhibitor): 0.03 ± 0.00 pmol/mg protein
- Accumulation, active transport (human OAT4; 0.03 µM nominal, no inhibitor): 0.01 ± 0.01 pmol/mg protein
- Fold accumulation (human OAT4; 0.03 µM nominal, no inhibitor): 1.22
- Accumulation in OAT4 transporter expressing cells (human OAT4; [2]): 0.40 ± 0.12 pmol/mg protein
- Accumulation in control cells (human OAT4; [2]): 0.49 ± 0.14 pmol/mg protein
- Accumulation, active transport (human OAT4; [2]): -0.09 ± 0.18 pmol/mg protein
- Fold accumulation (human OAT4; [2]): 0.81
- Accumulation in OAT4 transporter expressing cells (human OAT4; 0.30 µM nominal, no inhibitor): 0.35 ± 0.11 pmol/mg protein
- Accumulation in control cells (human OAT4; 0.30 µM nominal, no inhibitor): 0.22 ± 0.05 pmol/mg protein
- Accumulation, active transport (human OAT4; 0.30 µM nominal, no inhibitor): 0.13 ± 0.12 pmol/mg protein
- Fold accumulation (human OAT4; 0.30 µM nominal, no inhibitor): 1.58
- Max. transporter-specific fold accumulation, without inhibitor (human OAT4; 0.3 µM): 1.58
- Uptake via transporter (OAT4) (human OAT4; absence and presence of benzbromarone): not taken up
- Max. transporter-specific fold accumulation, with inhibitor (human OAT4; Benzbromarone, 0.3 µM): 0.81
- Accumulation in OAT3 transporter expressing cells (human OAT3; [3]): 0.05 ± 0.01 pmol/mg protein
- Accumulation in control cells (human OAT3; [3]): 0.03 ± 0.01 pmol/mg protein
- Accumulation, active transport (human OAT3; [3]): 0.02 ± 0.01 pmol/mg protein
- Fold accumulation (human OAT3; [3]): 1.56
- Accumulation in OAT3 transporter expressing cells (human OAT3; 0.03 µM nominal, no inhibitor): 0.07 ± 0.01 pmol/mg protein
- Accumulation in control cells (human OAT3; 0.03 µM nominal, no inhibitor): 0.03 ± 0.00 pmol/mg protein
- Accumulation, active transport (human OAT3; 0.03 µM nominal, no inhibitor): 0.03 ± 0.01 pmol/mg protein
- Fold accumulation (human OAT3; 0.03 µM nominal, no inhibitor): 1.96
- Accumulation in OAT3 transporter expressing cells (human OAT3; [4]): 0.74 ± 0.15 pmol/mg protein
- Accumulation in control cells (human OAT3; [4]): 0.29 ± 0.07 pmol/mg protein
- Accumulation, active transport (human OAT3; [4]): 0.45 ± 0.17 pmol/mg protein
- Fold accumulation (human OAT3; [4]): 2.52
- Accumulation in OAT3 transporter expressing cells (human OAT3; 0.30 µM nominal, no inhibitor): 0.60 ± 0.13 pmol/mg protein
- Accumulation in control cells (human OAT3; 0.30 µM nominal, no inhibitor): 0.29 ± 0.06 pmol/mg protein
- Accumulation, active transport (human OAT3; 0.30 µM nominal, no inhibitor): 0.31 ± 0.14 pmol/mg protein
- Fold accumulation (human OAT3; 0.30 µM nominal, no inhibitor): 2.09
- Max. transporter-specific fold accumulation, without inhibitor (human OAT3; 0.3 µM): 2.09
- Uptake via transporter (OAT3) (human OAT3; [5]): not taken up
- Max. transporter-specific fold accumulation, with inhibitor (human OAT3; Probenecid, 0.3 µM): 2.52
- Accumulation in OAT1 transporter expressing cells (human OAT1; [6]): 0.04 ± 0.00 pmol/mg protein
- Accumulation in control cells (human OAT1; [6]): 0.03 ± 0.00 pmol/mg protein
- Accumulation, active transport (human OAT1; [6]): 0.00 ± 0.00 pmol/mg protein
- Fold accumulation (human OAT1; [6]): 1.10
- Accumulation in OAT1 transporter expressing cells (human OAT1; 0.03 µM nominal, no inhibitor): 0.06 ± 0.01 pmol/mg protein
- Accumulation in control cells (human OAT1; 0.03 µM nominal, no inhibitor): 0.05 ± 0.01 pmol/mg protein
- Accumulation, active transport (human OAT1; 0.03 µM nominal, no inhibitor): 0.01 ± 0.01 pmol/mg protein
- Fold accumulation (human OAT1; 0.03 µM nominal, no inhibitor): 1.17
- Accumulation in OAT1 transporter expressing cells (human OAT1; [7]): 0.62 ± 0.13 pmol/mg protein
- Accumulation in control cells (human OAT1; [7]): 0.44 ± 0.10 pmol/mg protein
- Accumulation, active transport (human OAT1; [7]): 0.18 ± 0.16 pmol/mg protein
- Fold accumulation (human OAT1; [7]): 1.42
- Accumulation in OAT1 transporter expressing cells (human OAT1; 0.30 µM nominal, no inhibitor): 0.36 ± 0.02 pmol/mg protein
- Accumulation in control cells (human OAT1; 0.30 µM nominal, no inhibitor): 0.34 ± 0.06 pmol/mg protein
- Accumulation, active transport (human OAT1; 0.30 µM nominal, no inhibitor): 0.01 ± 0.06 pmol/mg protein
- Fold accumulation (human OAT1; 0.30 µM nominal, no inhibitor): 1.04
- Max. transporter-specific fold accumulation, without inhibitor (human OAT1; 0.03 µM): 1.17
- Uptake via transporter (OAT1) (human OAT1; [5]): not taken up
- Max. transporter-specific fold accumulation, with inhibitor (human OAT1; Probenecid, 0.03 µM): 1.10

— article PMC11053447, “Human ABC and SLC Transporters: The Culprit Responsible for Unspecific PSMA-617 Uptake?” (Pharmaceuticals, 2024)
